Converted amounts (≈) assume the structure as drawn. Read-outs that look alike come from different tables or passages of the source. Non-standard residues stand in square brackets, D forms with d. No end group written: not given here.
Experiments:
Burkolderia cenocepacia = assay: microbe, parasite or virus in culture; conditions: for MIC Burkolderia cenocepacia: MDR strain, MH broth pH 7.4, 16–20 h, 37 °C; for MIC B. cenocepacia: supplementary CSV
Enterobacter cloacae = assay: microbe, parasite or virus in culture; conditions: pH 7.4
Summary of the method: (§1)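 Growth inhibition is judged by eye after MTT addition, the MIC being the lowest compound concentration whose well stays yellow. Bacteria from overnight LB cultures are diluted in MH medium at pH 7.4 to roughly 5 × 10^5 CFU and incubated with doubling dilutions at 37 °C, unshaken, 16–20 h.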

P. aeruginosa PA14 = assay: microbe, parasite or virus in culture; conditions: for MIC PA14: MH broth pH 7.4, 16–20 h, 37 °C; for MIC P. aeruginosa PA14: supplementary CSV
Summary of the method: as §1

P. aeruginosa ZEM-1A = assay: microbe, parasite or virus in culture; conditions: pH 7.4
Summary of the method: as §1

PA14 2P4 (pmrB) = assay: microbe, parasite or virus in culture; conditions: supplementary CSV
Summary of the method: as §1

PA14 4.13 (phoQ) = assay: microbe, parasite or virus in culture; conditions: supplementary CSV
Summary of the method: as §1

PA14 4.18 (pmrB) = assay: microbe, parasite or virus in culture; conditions: supplementary CSV
Summary of the method: as §1

P. aeruginosa ZEM9A = assay: microbe, parasite or virus in culture; format: cell-based, Pseudomonas aeruginosa; conditions: pH 7.4
Summary of the method: as §1

K. pneumoniae Oxa-48 = assay: MIC broth microdilution, K. pneumoniae Oxa-48; format: cell-based, Klebsiella pneumoniae; conditions: MDR strain; MH broth pH 7.4, 16–20 h, 37 °C
Summary of the method: as §1

[1] = tested on: Stenotrophomonas maltophilia; assay: microbe, parasite or virus in culture; format: cell-based; conditions: pH 7.4
Summary of the method: as §1

Staphylococcus epidermis = assay: MIC broth microdilution, Staphylococcus epidermis; format: cell-based; conditions: for MIC Staphylococcus epidermis: pH 7.4
Summary of the method: as §1

HEK293 cells = assay: Alamar blue cytotoxicity, HEK293; format: cell-based, human; conditions: 24 h, mean ± SD, n = 3, read-out: Toxicity on HEK293 cells
Summary of the method: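 Viability read by AlamarBlue fluorescence (560/590 nm) after 3–5 h with 10% reagent, relative to untreated controls. Beforehand, cells got rising compound doses for 24 h at 37 °C; seeding was 8000/well for A549 in RPMI-1640 and 4000/well for HEK293 in DMEM.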

A549 cells = assay: Alamar blue cytotoxicity, A549; format: cell-based, human; conditions: 24 h, mean ± SD, n = 3, read-out: Toxicity on A549 lung cancern cells
Protocol: The A549 human lung adenocarcinoma cells are derived from a patient and were kindly given to us by Dr. Georgia Konstatinidou (Pharmacology Institute, Bern University). HEK293T cells were obtained from ATCC (CRL-11268). A549 and HEK293 were cultured in an incubator at 37 °C with 5% CO2 in RPMI-1640 (Gibco) and DMEM (Gibco) containing 10% fetal bovine serum (Thermo Fisher), 100 I.U./mL penicillin, and 100 μg/mL streptomycin (Gibco).
The viability of the cells was assessed with an AlamarBlue assay (ThermoFisher). Cells were seeded into 96-well plates, 4000 cells/well (HEK293) and 8000 cells/well (A549), the day before the experiment. Cells were then treated with the increasing concentration of the compound and incubated for 24 h at 37 °C in the presence of 5% CO2. The next day, the medium was removed and replaced by a 10% AlamarBlue solution in full growth medium (DMEM or RPMI-1640). The cells were incubated for 3–5 h at 37 °C with 5% CO2 in a humidified atmosphere. The fluorescence was then measured on a Tecan Infinite M1000 Pro plate reader at λex 560 nm and λem 590 nm. The value was normalized according to the untreated cells.

[2] = 24 h, […] human serum in TRIS buffer pH 7.4, 37 °C
Protocol: Human serum was diluted in 0.1 M filtered TRIS buffer (pH 7.4) (25%, 1:3, v/v). Selected peptides were diluted in 0.1 M filtered TRIS buffer (pH 7.4) to a concentration of 400 μM, and 0.1 mg/mL 4- hydroxybenzoic acid was added as an internal standard. Aliquots of peptide solution (50 μL) were added to aliquots of serum (50 μL) in sterile Eppendorf tubes, to reach a peptide concentration of 200 μM during the assay. Samples were incubated at 37 °C under gentle stirring (350 rpm). Different samples (triplicates) were quenched at different time points (0/1/6/12/24 h) by precipitating serum proteins through the addition of ZnSO4·7 H2O/ACN (1:1) (0.1 M, 100 μL) and cooling in ice bath for 10 min. Protein precipitates were pelleted under centrifugation, and supernatants were then sampled and analyzed by LC–MS. Experiment controls included two references, one known to be degraded and one known to be undegraded. Peaks corresponding to the internal standard and the undegraded peptides were integrated, with the ratio peptide/standard at t = 0 h as 100%.

P. aeruginosa PAO1 [3] = assay: Time-killing kinetic assay; format: cell-based, Pseudomonas aeruginosa; conditions: P. aeruginosa PAO1, 4 × MIC, pH 7.4
Protocol: A single colony of P. aeruginosa PAO1 was picked and grown overnight with shaking (180 rpm) in LB (Sigma-Aldrich, Buchs, Switzerland) medium 5 mL overnight at 37 °C. The overnight bacterial culture was diluted to OD600 0.002 (2 × 10^6 CFU/mL) in fresh MH medium. Stock solutions of AMPs in sterilized milliQ water were prepared in 1 mg/mL and were diluted to two times more than required concentration in fresh MH (Sigma-Aldrich, Buchs, Switzerland) medium at pH 7.4. 100 μL of prepared bacteria solution in MH and 100 μL of samples in MH were mixed in a 96-well microtiter plate (TPP, untreated, Corning Incorporated, Kennebunk, USA). Untreated bacteria at 1 × 10^6 CFU/mL were used as a growth control. 96-well microtiter plates were incubated in 37 °C with shaking (180 rpm). Surviving bacteria were quantified at 0, 0.5, 1, 2, 3, 4, 5, and 6 h by plating 10-fold dilutions of the sample in sterilized normal saline on LB agar plates. LB agar plates were incubated at 37 °C for 10 h, and the number of individual colonies was counted at each timepoint. The assay was performed in triplicate in the biosafety level 2 lab.

A. baumannii ATCC19606 = tested on: A. baumannii ATCC19606
Summary of the method: as §1

E. coli W3110 = tested on: E. coli W3110
Summary of the method: as §1

K. pneumoniae NCTC418 = tested on: K. pneumoniae NCTC418
Summary of the method: as §1

P. aeruginosa PAO1 [4] = tested on: P. aeruginosa PAO1
Summary of the method: as §1

[5] = tested on: Pseudomonas aeruginosa, Klebsiella pneumoniae, Acinetobacter baumannii, Escherichia coli, and methicillin-resistant Staphylococcus aureus; conditions: summary of Table 1
Summary of the method: as §1

S. aureus COL MRSA = conditions: for MIC S. aureus COL MRSA: MH broth pH 7.4, 16–20 h, 37 °C; for MIC S. aureus COL: supplementary CSV, ranges of Table 1 given as one number
Summary of the method: as §1

S. aureus Newman [6] = conditions: for MIC S. aureus Newman: MH broth pH 7.4, 16–20 h, 37 °C; for MIC S. aureus Newmann: supplementary CSV
S. aureus Newman [7] = assay: microbe, parasite or virus in culture; conditions: Staphylococcus aureus, pH 7.4, read-out: MIC S. aureus Newman
[8] = target: the molecule itself; assay: crystal structure; co-crystallisation of the C-fucosylated peptide with LecB, sitting drop vapor diffusion, 18 °C; LecB 5 mg/mL in water with 6 mM CaCl2 and MgCl2; peptide at 5:1 molar excess over the LecB monomer
[9] = MH broth pH 7.4, 16–20 h, 37 °C
[10] = supplementary CSV, ranges of Table 1 given as one number

| Molecule | MIC Burkolderia cenocepacia (Burkolderia cenocepacia) [µg/mL] | MIC B. cenocepacia (Burkolderia cenocepacia) [µg/mL] | MIC Enterobacter cloacae (Enterobacter cloacae) [µg/mL] | MIC PA14 (P. aeruginosa PA14) [µg/mL] | MIC P. aeruginosa PA14 (P. aeruginosa PA14) [µg/mL] | MIC ZEM-1A (P. aeruginosa ZEM-1A) [µg/mL] | MIC P. aeruginosaPA14 2P4 (PA14 2P4 (pmrB)) [µg/mL] | MIC P. aeruginosa PA14 4.13 (PA14 4.13 (phoQ)) [µg/mL] | MIC P. aeruginosa PA14 4.18 (PA14 4.18 (pmrB)) [µg/mL] | MIC ZEM9A (P. aeruginosa ZEM9A) [µg/mL] | MIC K. pneumoniae Oxa-48 (K. pneumoniae Oxa-48) [µg/mL] | MIC Stenotrophomonas maltophilia [1] [µg/mL] | MIC Staphylococcus epidermis (Staphylococcus epidermis) [µg/mL] | IC50 (HEK293 cells) [µM] | IC50 (A549 cells) [µM] | serum stability [2] | MIC A. baumannii ATCC19606 (A. baumannii ATCC19606; [9]) [µg/mL] | MIC E. coli W3110 (E. coli W3110; [9]) [µg/mL] | MIC K. pneumoniae NCTC418 (K. pneumoniae NCTC418; [9]) [µg/mL] | MIC K. pneumoniae NCTC418 (K. pneumoniae NCTC418; [10]) [µg/mL] | also measured |
| --- | --- | --- | --- | --- | --- | --- | --- | --- | --- | --- | --- | --- | --- | --- | --- | --- | --- | --- | --- | --- | --- |
| CC(C)C[C@H](NC(=O)[C@H](CCCCN)NC(=O)[C@H](N)CCCCN)C(=O)N[C@@H](CC(C)C)C(=O)N[C@@H](CCCCN)C(=O)N[C@@H](CC(C)C)C(=O)N[C@@H](CC(C)C)C(=O)N[C@@H](CCCCN)C(=O)N[C@@H](CC(C)C)C(=O)N[C@@H](CC(C)C)C(=O)N[C@H](CC(C)C)C(N)=O [HP5] | >64 | > 64 | 2 (≈ 1.51 µM) | 2 (≈ 1.51 µM) | 2 (≈ 1.51 µM) | 2 (≈ 1.51 µM) | 32 (≈ 24.2 µM) | 4 (≈ 3.03 µM) | 16 (≈ 12.1 µM) | 4 (≈ 3.03 µM) | 2 (≈ 1.51 µM) | 2 (≈ 1.51 µM) | 2 (≈ 1.51 µM) | 93.2 ± 0.1 | 18.9 ± 3.6 | entirely stabilize | 0.5 (≈ 0.378 µM) | 0.5 (≈ 0.378 µM) | 2 (≈ 1.51 µM) | 2 (≈ 1.51 µM) | time to complete killing of bacteria (P. aeruginosa PAO1 [3]): ≤ 1 h; MIC P. aeruginosa PAO1 (P. aeruginosa PAO1 [4]; [9]): 2 µg/mL (≈ 1.51 µM); MIC P. aeruginosa PAO1 (P. aeruginosa PAO1 [4]; [10]): 2 µg/mL (≈ 1.51 µM); MIC, span over the five bacterial strains [5]: 0.5 to 4 µg/mL; MIC S. aureus COL MRSA (S. aureus COL MRSA): 2 µg/mL (≈ 1.51 µM); MIC S. aureus COL (S. aureus COL MRSA): 2 µg/mL (≈ 1.51 µM); MIC S. aureus Newman (S. aureus Newman [6]): 2 µg/mL (≈ 1.51 µM); MIC S. aureus Newmann (S. aureus Newman [6]): 2 µg/mL (≈ 1.51 µM) |
| CN[C@H](CC(C)C)C(=O)N[C@H]1C(=O)N[C@@H](CC(N)=O)C(=O)N[C@H]2C(=O)N[C@H]3C(=O)N[C@H](C(=O)N[C@H](C(=O)O)c4cc(O)cc(O)c4-c4cc3ccc4O)[C@H](O)c3ccc(c(Cl)c3)Oc3cc2cc(c3O[C@@H]2O[C@H](CO)[C@@H](O)[C@H](O)[C@H]2O[C@H]2C[C@](C)(N)[C@H](O)[C@H](C)O2)Oc2ccc(cc2Cl)[C@H]1O [Vancomycin, vancomycin, reference compound] | – | – | – | – | – | – | – | – | – | – | – | – | – | – | – | – | – | – | – | – | MIC (Staphylococcus epidermis; Staphylococcus, pH 7.4, read-out: MIC Staphylococcus epidermis): 0.5 µg/mL (≈ 0.345 µM); MIC (S. aureus Newman [7]): 0.5 µg/mL (≈ 0.345 µM) |
| CC(C)C[C@@H](NC(=O)[C@@H](CC(C)C)NC(=O)[C@@H](CC(C)C)NC(=O)[C@H](CCCCN)NC(=O)[C@@H](CC(C)C)NC(=O)[C@@H](CC(C)C)NC(=O)[C@H](CCCCN)NC(=O)[C@@H](CC(C)C)NC(=O)[C@@H](CC(C)C)NC(=O)[C@H](CCCCN)NC(=O)[C@@H](N)CCCCN)C(N)=O [dln69, KKllKllKlll] | >64 | > 64 | 4 (≈ 3.03 µM) | 1 (≈ 0.757 µM) | 1 (≈ 0.757 µM) | 4 (≈ 3.03 µM) | 16 (≈ 12.1 µM) | 2 (≈ 1.51 µM) | 8 (≈ 6.05 µM) | 8 (≈ 6.05 µM) | 8 (≈ 6.05 µM) | 2 (≈ 1.51 µM) | 4 (≈ 3.03 µM) | 87 ± 2 | 7.2 ± 6.5 | entirely degraded | 2 (≈ 1.51 µM) | 0.5 to 1 | 4 (≈ 3.03 µM) | 4 (≈ 3.03 µM) | MIC A. baumannii ATCC19606 (A. baumannii ATCC19606; [10]): 2 µg/mL (≈ 1.51 µM); MIC E. coli W3110 (E. coli W3110; [10]): 1 µg/mL (≈ 0.757 µM); MIC P. aeruginosa PAO1 (P. aeruginosa PAO1 [4]; [9]): 2 to 4 µg/mL; MIC P. aeruginosa PAO1 (P. aeruginosa PAO1 [4]; [10]): 3 µg/mL (≈ 2.27 µM); MIC S. aureus COL MRSA (S. aureus COL MRSA): 2 µg/mL (≈ 1.51 µM); MIC S. aureus COL (S. aureus COL MRSA): 2 µg/mL (≈ 1.51 µM); MIC S. aureus Newman (S. aureus Newman [6]): 1 µg/mL (≈ 0.757 µM); MIC S. aureus Newmann (S. aureus Newman [6]): 1 µg/mL (≈ 0.757 µM) |
| {α‑L‑fucosyl‑acetyl}-K[dK]L[dL]K[dL]L[dK]L[dL]L (also called fucosylated analogue of HP30; source: synthetic peptide (Fmoc solid-phase synthesis on Tentagel S RAM resin, preparative RP-HPLC)) [FHP30] | – | – | – | – | – | – | – | – | – | – | – | – | – | – | – | – | – | – | – | – | stoichiometry N [8]: 4 |

From publication PMC10258794, “To Fold or Not to Fold: Diastereomeric Optimization of an α-Helical Antimicrobial Peptide” (Journal of Medicinal Chemistry, 2023)
